Structures can show the parent of a compound that is named as a salt. Where two headings read alike, the source gives them in different places.
Columns and labels:
human 5-HT1A receptors = target: T1, human 5-HT1A receptors (Homo sapiens, UniProt P08908); test: [3H] 8-OHDPAT displacement from 5-HT1A receptor in transfected CHO cells; format: binding
T1 construct: expressed in transfected cells; host or cells: CHO cells
T1 sequence (P08908 1-422): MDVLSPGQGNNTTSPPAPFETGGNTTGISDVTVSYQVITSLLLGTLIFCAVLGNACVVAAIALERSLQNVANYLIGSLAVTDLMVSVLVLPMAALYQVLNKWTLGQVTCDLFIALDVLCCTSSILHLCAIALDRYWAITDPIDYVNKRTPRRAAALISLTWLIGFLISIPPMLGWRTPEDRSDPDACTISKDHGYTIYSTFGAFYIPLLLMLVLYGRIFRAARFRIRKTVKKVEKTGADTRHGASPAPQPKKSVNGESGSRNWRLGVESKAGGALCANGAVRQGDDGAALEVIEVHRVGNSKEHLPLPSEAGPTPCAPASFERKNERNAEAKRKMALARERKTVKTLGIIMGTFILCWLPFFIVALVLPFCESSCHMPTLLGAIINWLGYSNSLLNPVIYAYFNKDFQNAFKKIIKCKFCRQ
Excerpt: High affinity for the serotonin 5-HT1A receptor was established by testing the claimed compound's ability to displace [^3H] 8-OHDPAT (dipropylaminotetralin) from the 5-HT1A serotonin receptor following a modification of the procedure of Hall et al., J. Neurochem. 44, 1685 (1985) which utilizes CHO cells stably transfected with human 5-HT1A receptors.

serotonin transporter = target: T2, serotonin transporter (Rattus norvegicus, UniProt P31652); test: 3H-paroxetine displacement from rat frontal cortical membranes (serotonin transporter affinity); format: binding
T2 construct: displace ^3H-paroxetine from male rat frontal cortical membranes; from tissue; host or cells: male rat frontal cortex membranes
T2 sequence (P31652 whole entry): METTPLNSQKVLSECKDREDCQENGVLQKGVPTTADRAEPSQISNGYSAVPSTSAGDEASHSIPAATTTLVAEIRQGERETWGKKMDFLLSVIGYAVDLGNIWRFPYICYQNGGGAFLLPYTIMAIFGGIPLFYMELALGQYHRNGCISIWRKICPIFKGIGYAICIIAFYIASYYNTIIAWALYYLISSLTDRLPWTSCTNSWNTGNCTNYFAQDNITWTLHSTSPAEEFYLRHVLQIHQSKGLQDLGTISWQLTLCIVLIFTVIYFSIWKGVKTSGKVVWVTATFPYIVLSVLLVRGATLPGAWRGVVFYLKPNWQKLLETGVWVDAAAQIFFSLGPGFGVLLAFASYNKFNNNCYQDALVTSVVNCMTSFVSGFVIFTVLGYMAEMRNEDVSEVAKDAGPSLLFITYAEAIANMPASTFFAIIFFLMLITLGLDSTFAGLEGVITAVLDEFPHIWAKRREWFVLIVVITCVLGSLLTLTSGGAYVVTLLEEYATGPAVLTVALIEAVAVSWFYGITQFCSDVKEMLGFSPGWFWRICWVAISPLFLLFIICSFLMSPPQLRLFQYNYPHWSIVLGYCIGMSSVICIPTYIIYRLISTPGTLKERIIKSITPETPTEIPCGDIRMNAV

[1] = target: T3, cloned human 5-HT1A receptors (Homo sapiens, UniProt P08908); test: 35S-GTPγS binding assay for antagonist activity at 5-HT1A receptors; format: biochemical; details: membranes with cloned human 5-HT1A receptors, reversal of agonist 8-OHDPAT; for Emax: read-out: 5-HT1A Function (Imax), maximum inhibitory effect; for IC50: read-out: 5-HT1A Function IC50
T3 construct: expressed in transfected cells
T3 sequence (P08908 1-422): T1 sequence (P08908 1-422)
Procedure: Antagonist activity at 5-HT1A receptors was established by using a ^35S-GTPγS binding assay similar to that used by Lazareno and Birdsall (Br. J. Pharmacol. 109: 1120, 1993), in which the test compound's ability to affect the binding of ^35S-GTPγS to membranes containing cloned human 5-HT1A receptors was determined. Agonists produce an increase in binding whereas antagonists produce no increase but rather reverse the effects of the standard agonist 8-OHDPAT. The test compound's maximum inhibitory effect is represented as the Imax, while its potency is defined by the IC50.

[2] = displacement of [3H] 8-OHDPAT, CHO cells stably transfected with human 5-HT1A receptors, read-out: 5-HT1A Receptor Affinity KI
[3] = displacement of 3H-paroxetine, male rat frontal cortical membranes, read-out: 5-HT Transporter Affinity KI

SMILES: C1=C(c2csc3ccccc23)CCN(CC2COc3ccc4[nH]ccc4c3O2)C1 (stereo not shown) [Example 7, 2-(4-Benzo[b]thiophen-3-yl-3,6-dihydro-2H-pyridin-1-ylmethyl)-2,3-dihydro-7H-[1,4]dioxino[2,3-e]indole]
- Ki (human 5-HT1A receptors): 0.00474 µM
- Ki (serotonin transporter): 0.00248 µM
- Emax [1]: 100%
- IC50 [1]: 0.0258 µM

SMILES: Cc1nc2ccc3c(c2o1)OC(CN1CC=C(c2csc4ccccc24)CC1)CO3 (stereo not shown) [Example 9, 8-(4-Benzo[b]thiophen-3-yl-3,6-dihydro-2H-pyridin-1-ylmethyl)-2-methyl-7,8-dihydro-[1,4]dioxino[2,3-g][1,3]benzoxazole]
- Ki (human 5-HT1A receptors): 0.0202 µM
- Ki (serotonin transporter): 0.013 µM
- Emax [1]: 50%
- IC50 [1]: 1.98 µM

SMILES: Fc1ccc2scc(C3=CCN(C[C@H]4COc5ccc6[nH]ccc6c5O4)CC3)c2c1 [Example 8, 2-[4-(5-Fluoro-benzo[b]thiophen-3-yl)-3,6-dihydro-2H-pyridin-1-ylmethyl]-2,3-m-dihydro-7H-[1,4]dioxino[2,3-e]indole]
- Ki (human 5-HT1A receptors): 0.00345 µM
- Ki (serotonin transporter): 0.033 µM
- Emax [1]: 100%
- IC50 [1]: 0.147 µM

SMILES: Cc1nc2ccc3c(c2o1)OC(CN1CC=C(c2csc4ccccc24)CC1)CO3 (stereo not shown) (as salt: oxalate) [Example 9, 8-(4-Benzo[b]thiophen-3-yl-3,6-dihydro-2H-pyridin-1-ylmethyl)-2-methyl-7,8-dihydro-[1,4]dioxino[2,3-g][1,3]benzoxazole]
- melting point: 126 to 129 °C

SMILES: Cc1ccc2c3c(ccc2n1)OCC(CN1CCC(c2cc4ccccc4o2)CC1)O3 (stereo not shown) [Example 12, 2-(4-Benzofuran-2-yl-piperidin-1-ylmethyl)-8-methyl-2,3-dihydro-[1,4]dioxino[2,3-f]quinoline]
- Ki (human 5-HT1A receptors; [2]): 0.00867 µM
- melting point: 103 to 104 °C
- Ki (serotonin transporter; [3]): 0.109 µM
- Emax [1]: 100%
- IC50 [1]: 0.59 µM

SMILES: Cc1ccc2c3c(ccc2n1)OCC(CN1CC=C(c2cccc4ccsc24)CC1)O3 (stereo not shown) (as salt: oxalate) [Example 10, 2-(4-Benzo[b]thiophen-7-yl-3,6-dihydro-2H-pyridin-1-ylmethyl)-8-methyl-2,3-dihydro-[1,4]dioxino[2,3-f]quinoline]
- melting point: 183 to 185 °C

SMILES: Fc1ccc2scc(C3=CCN(CC4COc5ccc6ncccc6c5O4)CC3)c2c1 (stereo not shown) [Example 5, 2-[4-(5-Fluoro-benzo[b]thiophen-3-yl)-3,6-dihydro-2H-pyridin-1-ylmethyl]-2,3-dihydro-[1,4]dioxino[2,3-f]quinoline]
- Ki (human 5-HT1A receptors): 0.0234 µM
- Ki (serotonin transporter): 0.035 µM
- Emax [1]: 30%
- IC50 [1]: 1 µM

SMILES: Cc1ccc2c3c(ccc2n1)OCC(CN1CC=C(c2csc4ccccc24)CC1)O3 (stereo not shown) (as salt: oxalate) [Example 1, 2-(4-Benzo[b]thiophen-3-yl-3,6-dihydro-2H-pyridin-1-ylmethyl)-8-methyl-2,3-dihydro-[1,4]dioxino[2,3-f]quinoline]
- melting point: 129 to 133 °C

SMILES: C1=C(c2csc3ccccc23)CCN(CC2COc3ccc4ncccc4c3O2)C1 (stereo not shown) [Example 6, 2-(4-Benzo[b]thiophen-3-yl-3,6-dihydro-2H-pyridin-1-ylmethyl)-2,3-dihydro-[1,4]dioxino[2,3-f]quinoline]
- Ki (human 5-HT1A receptors): 0.0145 µM
- Ki (serotonin transporter): 0.0085 µM
- Emax [1]: 100%
- IC50 [1]: 0.145 µM

SMILES: Cc1ccc2c3c(ccc2n1)OCC(CN1CC=C(c2cccc4ccsc24)CC1)O3 (stereo not shown) [Example 10, 2-(4-Benzo[b]thiophen-7-yl-3,6-dihydro-2H-pyridin-1-ylmethyl)-8-methyl-2,3-dihydro-[1,4]dioxino[2,3-f]quinoline]
- Ki (human 5-HT1A receptors): 0.0349 µM
- Ki (serotonin transporter): 0.01 µM
- Emax [1]: 40.5%
- IC50 [1]: 0.392 µM

SMILES: Cc1ccc2c3c(ccc2n1)OCC(CN1CC=C(c2cc4ccccc4o2)CC1)O3 (stereo not shown) [Example 11, 2-(4-Benzofuran-2-yl-3,6-dihydro-2H-pyridin-1-ylmethyl)-8-methyl-2,3-dihydro-[1,4]dioxino[2,3-f]quinoline]
- Ki (human 5-HT1A receptors): 0.0157 µM
- melting point: 149 to 150 °C
- Ki (serotonin transporter; [3]): 0.213 µM
- Emax [1]: 70%
- IC50 [1]: 15.5 µM

SMILES: Cc1ccc2c3c(ccc2n1)OCC(CN1CC=C(c2csc4ccc(Cl)cc24)CC1)O3 (stereo not shown) [Example 13, 2-[4-(5-Chloro-benzo[b]thiophen-3-yl)-3,6-dihydro-2H-pyridin-1-ylmethyl]-8-methyl-2,3-dihydro-[1,4]dioxino[2,3-f]quinoline]
- Ki (human 5-HT1A receptors; [2]): 0.135 µM
- Ki (serotonin transporter): 0.094 µM
- Emax [1]: 100%
- IC50 [1]: 2.52 µM

SMILES: Fc1ccc2scc(C3=CCN(CC4COc5ccc6ncccc6c5O4)CC3)c2c1 (stereo not shown) (as salt: oxalate) [Example 5, 2-[4-(5-Fluoro-benzo[b]thiophen-3-yl)-3,6-dihydro-2H-pyridin-1-ylmethyl]-2,3-dihydro-[1,4]dioxino[2,3-f]quinoline]
- melting point: 183 to 185 °C

SMILES: Cc1ccc2c3c(ccc2n1)OCC(CN1CC=C(c2csc4ccc(F)cc24)CC1)O3 (stereo not shown) (as salt: oxalate) [Example 3, 2-[4-(5-Fluoro-benzo[b]thiophen-3-yl)-3,6-dihydro-2H-pyridin-1-ylmethyl]-8-methyl-2,3-dihydro-[1,4]dioxino[2,3-f]quinoline]
- melting point: 197 to 201 °C

SMILES: COc1cccc2c(C3=CCN(C[C@H]4COc5ccc6nc(C)ccc6c5O4)CC3)coc12 [Example 4, 2-[4-(7-Methoxy-benzofuran-3-yl)-3,6-dihydro-2H-pyridin-1-ylmethyl]-8-methyl-2,3-dihydro-[1,4]dioxino[2,3-f]guinoline]
- Ki (human 5-HT1A receptors): 0.00266 µM
- Ki (serotonin transporter): 0.07 µM
- Emax [1]: 91%
- IC50 [1]: 0.167 µM

SMILES: C1=C(c2csc3ccccc23)CCN(CC2COc3ccc4ncccc4c3O2)C1 (stereo not shown) (as salt: oxalate) [Example 6, 2-(4-Benzo[b]thiophen-3-yl-3,6-dihydro-2H-pyridin-1-ylmethyl)-2,3-dihydro-[1,4]dioxino[2,3-f]quinoline]
- melting point: 178 to 180 °C

SMILES: Cc1ccc2c3c(ccc2n1)OCC(CN1CCC(c2nc4ccccc4o2)CC1)O3 (stereo not shown) [Example 14, 2-(4-Benzoxazol-2-yl-piperidin-1-ylmethyl)-8-methyl-2,3-dihydro-[1,4]dioxino[2,3-f]quinoline]
- Ki (human 5-HT1A receptors; [2]): 0.0198 µM
- melting point: 128 to 130 °C
- Ki (serotonin transporter; [3]): 0.017 µM
- Emax [1]: 100%
- IC50 [1]: 0.167 µM

SMILES: Cc1ccc2c3c(ccc2n1)OCC(CN1CC=C(c2cc4ccccc4s2)CC1)O3 (stereo not shown) [Example 2, 2-(4-Benzo[b]thiophen-2-yl-3,6-dihydro-2H-pyridin-1-ylmethyl)-8-methyl-2,3-dihydro-[1,4]dioxino[2,3-f]quinoline]
- Ki (human 5-HT1A receptors; [2]): 0.0216 µM
- melting point: 174 to 176 °C
- Ki (serotonin transporter): 0.078 µM

SMILES: Cc1ccc2c3c(ccc2n1)OCC(CN1CC=C(c2csc4ccc(F)cc24)CC1)O3 (stereo not shown) [Example 3, 2-[4-(5-Fluoro-benzo[b]thiophen-3-yl)-3,6-dihydro-2H-pyridin-1-ylmethyl]-8-methyl-2,3-dihydro-[1,4]dioxino[2,3-f]quinoline]
- Ki (human 5-HT1A receptors): 0.0159 µM
- Ki (serotonin transporter): 0.0185 µM
- Emax [1]: 87.4%
- IC50 [1]: 0.437 µM

SMILES: Cc1ccc2c3c(ccc2n1)OCC(CN1CC=C(c2csc4ccccc24)CC1)O3 (stereo not shown) [Example 1, 2-(4-Benzo[b]thiophen-3-yl-3,6-dihydro-2H-pyridin-1-ylmethyl)-8-methyl-2,3-dihydro-[1,4]dioxino[2,3-f]quinoline]
- Ki (human 5-HT1A receptors): 0.00489 µM
- Ki (serotonin transporter): 0.00925 µM
- Emax [1]: 100%
- IC50 [1]: 0.499 µM

— US7479500B2, “Antidepressant piperidine derivatives of heterocyclefused benzodioxans” (Wyeth, priority 2002, dated 2009)
